Assay results as given in the NIST ThermoML archive (doi:10.1016/j.jct.2014.09.014).

Details: Liquid, Vibrating tube method

CCCCn1cc[n+](C)c1C.O=S(=O)([N-]S(=O)(=O)C(F)(F)F)C(F)(F)F
mass density [kg/m3]
Details	100 kPa	1000 kPa	10000 kPa	20000 kPa	40000 kPa	60000 kPa	80000 kPa	100000 kPa	120000 kPa
278.15 K	1439.8	1440	1445.9	1452.2	1464	1475	1485.2	1494.7	1503.9
298.15 K	1420.9	1421.2	1427.5	1434.1	1446.5	1458	1468.8	1479	1488.7
313.15 K	1407.1	1407.5	1414	1420.9	1433.9	1445.8	1457	1467.3	1477.2
333.15 K	1388.5	1389	1396	1403.4	1417.1	1429.7	1441.4	1452.2	1462.6
348.15 K	1374.7	1375.3	1382.7	1390.4	1404.7	1417.8	1429.9	1441.1	1451.7
373.15 K	1351.1	1352.3	1360.4	1368.7	1384	1397.9	1410.6	1422.5	1433.6
398.15 K	1328.4	1329.7	1338.4	1347.4	1363.8	1378.5	1392.1	1404.6	1416
